Source: patent US7495027B2, “3-aryl-4-hydroxyfuranone compounds and the human and animal health use thereof” (Wyeth, priority 2003, dated 2009)
≈ marks a conversion by molar mass, not a printed value. Like-named read-outs stand apart in the source and are kept apart here.

Columns and labels:
[1] = tested on: staphylococci; assay: Minimum inhibitory concentration, microdilution broth method, staphylococci; type: cell-based; settings: Mueller-Hinton broth, 18-22 hours at 35° C.; for MIC: Staphylococcus aureus
Outline: (§1)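 Organisms, including methicillin-, penicillin- and/or vancomycin-resistant clinical isolates, tested by NCCLS M7-A5 microdilution. Medium: Mueller-Hinton broth for staphylococci and enterococci, supplemented with 5% lysed horse blood for streptococci.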

[2] = tested on: Streptococci; assay: Minimum inhibitory concentration, microdilution broth method, streptococci; type: cell-based; settings: Mueller-Hinton broth with 5% horse blood, 18-22 hours at 35° C.; for MIC: S. pneumo GC 1894
Outline: as §1

[3] = target: T1, S. aureus Uridine-diphosphate-N-acetylmuramoyl-L-alanine: D-glutamate liease, MurD (Staphylococcus aureus, UniProt Q2FZ92); assay: biochemical; settings: (S) S. aureus enzyme
T1 sequence (Q2FZ92 1-449): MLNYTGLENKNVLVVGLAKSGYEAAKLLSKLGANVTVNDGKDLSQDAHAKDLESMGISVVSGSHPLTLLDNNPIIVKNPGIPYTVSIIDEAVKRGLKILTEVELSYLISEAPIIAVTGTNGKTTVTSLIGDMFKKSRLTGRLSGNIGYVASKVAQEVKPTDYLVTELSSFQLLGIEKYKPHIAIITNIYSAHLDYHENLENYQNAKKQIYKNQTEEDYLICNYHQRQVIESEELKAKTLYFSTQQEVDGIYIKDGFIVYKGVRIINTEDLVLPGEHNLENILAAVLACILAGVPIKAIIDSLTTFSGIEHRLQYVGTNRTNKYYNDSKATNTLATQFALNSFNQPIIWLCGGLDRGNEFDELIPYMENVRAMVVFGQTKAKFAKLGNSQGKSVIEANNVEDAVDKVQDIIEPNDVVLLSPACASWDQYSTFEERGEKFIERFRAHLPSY
Outline: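 MurD, which catalyses the fourth step of cell wall biosynthesis, was tested for inhibition by compounds. Compounds were made up as 10 mg/mL DMSO stocks and diluted to 100 μg/mL in 50 mM Tris/HCl, pH 8.5.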

[4] = S. aureus GC 1131, read-out: MIC S. aureus GC 1131
[5] = S. aureus GC 4543, read-out: MIC S. aureus GC 4543

Compound: COc1cc(/C=C2\OC(=O)C(c3cccc(Cl)c3)=C2O)ccc1-c1ccccc1Cl [Example 18]
- MIC [1, 4]: 4 µg/mL (≈ 9.11 µM)
- MIC [1, 5]: 4 µg/mL (≈ 9.11 µM)
- MIC [2]: 0.5 µg/mL (≈ 1.14 µM)
- IC50 [3]: 41 µM

Compound: COc1cc(/C=C2\OC(=O)C(c3cc(Cl)cc(Cl)c3)=C2O)ccc1-c1ccccc1Cl [Example 21]
- MIC [1, 4]: 1 µg/mL (≈ 2.11 µM)
- MIC [1, 5]: 0.5 µg/mL (≈ 1.06 µM)
- MIC [2]: 0.5 µg/mL (≈ 1.06 µM)
- IC50 [3]: 16.9 µM

Compound: COc1cc(/C=C2\OC(=O)C(c3cccc(Cl)c3)=C2O)ccc1-c1ccccc1C [Example 22]
- MIC [1, 4]: 4 µg/mL (≈ 9.55 µM)
- MIC [1, 5]: 4 µg/mL (≈ 9.55 µM)
- MIC [2]: 1 µg/mL (≈ 2.39 µM)
- IC50 [3]: 40.6 µM

Compound: COc1ccccc1-c1ccc(/C=C2\OC(=O)C(c3cccc(Cl)c3)=C2O)cc1C [Example 23]
- MIC [1, 4]: 8 µg/mL (≈ 19.1 µM)
- MIC [1, 5]: 4 µg/mL (≈ 9.55 µM)
- MIC [2]: 1 µg/mL (≈ 2.39 µM)
- IC50 [3]: 23.9 µM

Compound: COc1ccccc1-c1ccc(/C=C2\OC(=O)C(c3cc(Cl)cc(Cl)c3)=C2O)cc1C [Example 24]
- MIC [1, 4]: 2 µg/mL (≈ 4.41 µM)
- MIC [1, 5]: 1 µg/mL (≈ 2.21 µM)
- MIC [2]: 0.5 µg/mL (≈ 1.1 µM)
- IC50 [3]: 24.3 µM

Compound: COc1cc(/C=C2\OC(=O)C(c3cc(Cl)cc(Cl)c3)=C2O)ccc1-c1ccccc1C [Example 25]
- MIC [1, 4]: 1 µg/mL (≈ 2.21 µM)
- MIC [1, 5]: 0.5 µg/mL (≈ 1.1 µM)
- MIC [2]: 0.25 µg/mL (≈ 0.551 µM)
- IC50 [3]: 30.9 µM

Compound: Cc1cc(/C=C2\OC(=O)C(c3cccc(Cl)c3)=C2O)ccc1-c1ccccc1C(F)(F)F [Example 26]
- MIC [1, 4]: 2 µg/mL (≈ 4.38 µM)
- MIC [1, 5]: 1 µg/mL (≈ 2.19 µM)
- MIC [2]: < 0.125 µg/mL
- IC50 [3]: 19.7 µM

Compound: Cc1cc(/C=C2\OC(=O)C(c3cc(Cl)cc(Cl)c3)=C2O)ccc1-c1ccccc1C(F)(F)F [Example 27]
- MIC [1, 4]: 0.5 µg/mL (≈ 1.02 µM)
- MIC [1, 5]: 0.5 µg/mL (≈ 1.02 µM)
- MIC [2]: 0.5 µg/mL (≈ 1.02 µM)
- IC50 [3]: 48.9 µM

Compound: Cc1ccccc1-c1ccc(/C=C2\OC(=O)C(c3cccc(Cl)c3)=C2O)cc1C [Example 28]
- MIC [1, 4]: 1 µg/mL (≈ 2.48 µM)
- MIC [1, 5]: 0.5 µg/mL (≈ 1.24 µM)
- MIC [2]: < 0.125 µg/mL
- IC50 [3]: > 62.1 µM

Compound: Cc1ccccc1-c1ccc(/C=C2\OC(=O)C(c3cc(Cl)cc(Cl)c3)=C2O)cc1C [Example 29]
- MIC [1, 4]: 0.5 µg/mL (≈ 1.14 µM)
- MIC [1, 5]: 0.5 µg/mL (≈ 1.14 µM)
- MIC [2]: < 0.125 µg/mL
- IC50 [3]: 38.9 µM

Compound: Cc1cc(/C=C2\OC(=O)C(c3cccc(Cl)c3)=C2O)ccc1-c1ccccc1Cl [Example 30]
- MIC [1, 4]: 2 µg/mL (≈ 4.72 µM)
- MIC [1, 5]: 1 µg/mL (≈ 2.36 µM)
- MIC [2]: 0.25 µg/mL (≈ 0.591 µM)
- IC50 [3]: > 59.1 µM

Compound: Cc1cc(C=C2OC(=O)C(c3cc(Cl)cc(Cl)c3)=C2O)ccc1-c1ccccc1Cl [Example 31]
- MIC S. aureus GC 1131 ([1]; S. aureus GC 1131): 0.5 µg/mL (≈ 1.09 µM)
- MIC S. aureus GC 4543 ([1]; S. aureus GC 4543): 0.25 µg/mL (≈ 0.546 µM)
- MIC S. pneumo GC 1894 [2]: 0.25 µg/mL (≈ 0.546 µM)
- MurD IC50 [3]: 10 (S) μg/mL

Compound: COc1cc(/C=C2\OC(=O)C(c3cccc(Cl)c3)=C2O)ccc1-c1ccccc1C(F)(F)F [Example 32]
- MIC [1, 4]: 2 µg/mL (≈ 4.23 µM)
- MIC [1, 5]: 2 µg/mL (≈ 4.23 µM)
- MIC [2]: 0.5 µg/mL (≈ 1.06 µM)
- IC50 [3]: 19 µM

Compound: COc1cc(/C=C2\OC(=O)C(c3cc(Cl)cc(Cl)c3)=C2O)ccc1-c1ccccc1C(F)(F)F [Example 33]
- MIC [1, 4]: 0.5 µg/mL (≈ 0.986 µM)
- MIC [1, 5]: 0.5 µg/mL (≈ 0.986 µM)
- MIC [2]: 0.5 µg/mL (≈ 0.986 µM)
- IC50 [3]: > 49.3 µM

Compound: O=C1O/C(=C\c2ccc(N3CCOCC3)c(F)c2)C(O)=C1c1cc(Cl)cc(Cl)c1 [Example 34]
- MIC S. aureus GC 1131 ([1]; S. aureus GC 1131): 32 µg/mL (≈ 73.3 µM)
- MIC S. aureus GC 4543 ([1]; S. aureus GC 4543): 32 µg/mL (≈ 73.3 µM)
- MIC S. pneumo GC 1894 [2]: 4 µg/mL (≈ 9.17 µM)
- MurD IC50 [3]: >25 (S) μg/mL

Compound: COc1ccc(C=C2OC(=O)C(c3cccc(Cl)c3)=C2O)c2ccccc12 [Example 35]
- MIC S. aureus GC 1131 ([1]; S. aureus GC 1131): 8 µg/mL (≈ 21.1 µM)
- MIC S. aureus GC 4543 ([1]; S. aureus GC 4543): 8 µg/mL (≈ 21.1 µM)
- MIC S. pneumo GC 1894 [2]: 2 µg/mL (≈ 5.28 µM)
- MurD IC50 [3]: 17 (S) μg/mL

Compound: COc1ccc(/C=C2\OC(=O)C(c3cc(Cl)cc(Cl)c3)=C2O)c2ccccc12 [Example 36]
- MIC [1, 4]: 4 µg/mL (≈ 9.68 µM)
- MIC [1, 5]: 4 µg/mL (≈ 9.68 µM)
- MIC [2]: 1 µg/mL (≈ 2.42 µM)
- IC50 [3]: 21.8 µM

Compound: O=C1O/C(=C\c2ccc(N3CCOCC3)c3ccccc23)C(O)=C1c1cccc(Cl)c1 [Example 37]
- MIC [1, 4]: 16 µg/mL (≈ 36.9 µM)
- MIC [1, 5]: 16 µg/mL (≈ 36.9 µM)
- MIC [2]: 8 µg/mL (≈ 18.4 µM)
- IC50 [3]: 43.8 µM

Compound: O=C1O/C(=C\c2ccc(N3CCOCC3)c3ccccc23)C(O)=C1c1cc(Cl)cc(Cl)c1 [Example 38]
- MIC [1, 4]: 8 µg/mL (≈ 17.1 µM)
- MIC [1, 5]: 8 µg/mL (≈ 17.1 µM)
- MIC [2]: 1 µg/mL (≈ 2.14 µM)
- IC50 [3]: 12.8 µM

Compound: Cc1cc(/C=C2\OC(=O)C(c3cc(Cl)cc(Cl)c3)=C2O)ccc1-c1ccccc1OS(C)(=O)=O [Example 39]
- MIC S. aureus GC 1131 ([1]; S. aureus GC 1131): 2 µg/mL (≈ 3.87 µM)
- MIC S. aureus GC 4543 ([1]; S. aureus GC 4543): 4 µg/mL (≈ 7.73 µM)
- MIC S. pneumo GC 1894 [2]: 1 µg/mL (≈ 1.93 µM)
- MurD IC50 [3]: 15 (S) μg/mL

Compound: CN(C)c1ccc(/C=C2\OC(=O)C(c3ccc(Cl)cc3)=C2O)c2ccccc12 [Example 78]
- MIC [1, 4]: 32 µg/mL (≈ 81.7 µM)
- MIC [1, 5]: 32 µg/mL (≈ 81.7 µM)
- MIC [2]: 2 µg/mL (≈ 5.1 µM)
- IC50 [3]: > 63.8 µM

Compound: CN(C)c1ccc(/C=C2\OC(=O)C(c3cc(Cl)cc(Cl)c3)=C2O)c2ccccc12 [Example 79]
- MIC [1, 4]: 2 µg/mL (≈ 4.69 µM)
- MIC [1, 5]: 1 µg/mL (≈ 2.35 µM)
- MIC [2]: 0.5 µg/mL (≈ 1.17 µM)
- IC50 [3]: 32.8 µM

Compound: CN(C)c1ccc(C=C2OC(=O)C(c3cc(Cl)cc(Cl)c3)=C2O)c2ccccc12 [Example 80]
- MIC S. aureus GC 1131 ([1]; S. aureus GC 1131): 2 µg/mL (≈ 4.69 µM)
- MIC S. aureus GC 4543 ([1]; S. aureus GC 4543): 1 µg/mL (≈ 2.35 µM)
- MIC S. pneumo GC 1894 [2]: 1 µg/mL (≈ 2.35 µM)
- MurD IC50 [3]: 13 (S) μg/mL

Compound: CN(C)c1ccc(/C=C2\OC(=O)C(c3ccc(C(F)(F)F)cc3)=C2O)c2ccccc12 [Example 81]
- MIC [1, 4]: 8 µg/mL (≈ 18.8 µM)
- MIC [1, 5]: 8 µg/mL (≈ 18.8 µM)
- MIC [2]: 1 µg/mL (≈ 2.35 µM)
- IC50 [3]: > 58.8 µM

Compound: O=C1O/C(=C\c2ccccc2-c2cccc(Cl)c2)C(O)=C1c1cccc(Cl)c1 [Example 140]
- MIC [1, 4]: 1 µg/mL (≈ 2.44 µM)
- MIC [1, 5]: 1 µg/mL (≈ 2.44 µM)
- MIC [2]: 1 µg/mL (≈ 2.44 µM)
- IC50 [3]: 48.9 µM

Compound: O=C1O/C(=C\c2ccccc2-c2ccc(Cl)c(Cl)c2)C(O)=C1c1ccc(Cl)c(Cl)c1 [Example 141]
- MIC [1, 4]: 0.5 µg/mL (≈ 1.05 µM)
- MIC [1, 5]: 0.25 µg/mL (≈ 0.523 µM)
- MIC [2]: < 0.125 µg/mL
- IC50 [3]: 6.27 µM

Compound: O=C1O/C(=C\c2cc(C(F)(F)F)ccc2Cl)C(O)=C1c1ccc(N2CCOCC2)c(F)c1 [Example 142]
- MIC S. aureus GC 1131 ([1]; S. aureus GC 1131): 64 µg/mL (≈ 136 µM)
- MIC S. aureus GC 4543 ([1]; S. aureus GC 4543): >128 µg/mL
- MIC S. pneumo GC 1894 [2]: 8 µg/mL (≈ 17 µM)
- MurD IC50 [3]: >25 (S) μg/mL
